Experimental data reported in ChEMBL document CHEMBL4680060, “Polybasic peptide-levofloxacin conjugates potentiate fluoroquinolones and other classes of antibiotics against multidrug-resistant Gram-negative bacteria” (Medchemcomm, 2019).
In brackets after ≈: the same amount, converted by molar mass. Activity calls are given as the source filed them. The calls are words filed in the database; no cut-off is given here.

Assays:
Staphylococcus aureus = assay: Antibacterial activity against Staphylococcus aureus ATCC 29213 assessed as inhibition of visible growth incubated for 18 hrs by CLSI protocol based microbroth dilution method; type: functional
Streptococcus pneumoniae = assay: Antibacterial activity against Streptococcus pneumoniae ATCC 49619 assessed as inhibition of visible growth incubated for 18 hrs by CLSI protocol based microbroth dilution method; type: functional
Enterococcus faecalis = assay: Antibacterial activity against Enterococcus faecalis ATCC 29212 assessed as inhibition of visible growth incubated for 18 hrs by CLSI protocol based microbroth dilution method; type: functional
Pseudomonas aeruginosa [1] = assay: Antibacterial activity against Pseudomonas aeruginosa ATCC 27853 assessed as inhibition of visible growth incubated for 18 hrs by CLSI protocol based microbroth dilution method; type: functional
Acinetobacter baumannii [2] = assay: Antibacterial activity against Acinetobacter baumannii clinical isolate CAN-ICU 63169 assessed as inhibition of visible growth incubated for 18 hrs by CLSI protocol based microbroth dilution method; type: functional
Pseudomonas aeruginosa [3] = assay: Potentiation of ciprofloxacin-induced antibacterial activity against wild type Pseudomonas aeruginosa PAO1 assessed as ciprofloxacin MIC measured after 18 hrs by CLSI protocol based microbroth dilution method (reference value: 0.125 ug/ml); type: functional
Pseudomonas aeruginosa [4] = assay: Potentiation of levofloxacin-induced antibacterial activity against wild type Pseudomonas aeruginosa PAO1 assessed as levofloxacin MIC measured after 18 hrs by CLSI protocol based microbroth dilution method (reference value: 0.5 ug/ml); type: functional
Pseudomonas aeruginosa [5] = assay: Synergistic antibacterial activity against wild type Pseudomonas aeruginosa PAO1 assessed as fractional inhibitory concentration index in presence of ciprofloxacin by Checkerboard assay; type: functional
Pseudomonas aeruginosa [6] = assay: Synergistic antibacterial activity against wild type Pseudomonas aeruginosa PAO1 assessed as fractional inhibitory concentration index in presence of levofloxacin by Checkerboard assay; type: functional
Pseudomonas aeruginosa [7] = assay: Additive antibacterial activity against MexAB-OprM efflux pump deficient Pseudomonas aeruginosa PAO200 in presence of ciprofloxacin by Checkerboard assay; type: functional, organism-based
Pseudomonas aeruginosa [8] = assay: Additive antibacterial activity against MexAB-OprM efflux pump deficient Pseudomonas aeruginosa PAO200 in presence of levofloxacin by Checkerboard assay; type: functional, organism-based
Pseudomonas aeruginosa [9] = assay: Additive antibacterial activity against MexAB-OprM efflux pump deficient Pseudomonas aeruginosa PAO200 in presence of moxifloxacin by Checkerboard assay; type: functional, organism-based
Pseudomonas aeruginosa [10] = assay: Additive antibacterial activity against MexAB-OprM, MexCD-OprJ, MexEF-OprN, MexJK and MexXY efflux pumps deficient Pseudomonas aeruginosa PAO750 in presence of levofloxacin by Checkerboard assay; type: functional, organism-based
Pseudomonas aeruginosa [11] = assay: Additive antibacterial activity against MexAB-OprM, MexCD-OprJ, MexEF-OprN, MexJK and MexXY efflux pumps deficient Pseudomonas aeruginosa PAO750 in presence of moxifloxacin by Checkerboard assay; type: functional, organism-based
Pseudomonas aeruginosa [12] = assay: Synergistic antibacterial activity against wild type Pseudomonas aeruginosa PAO1 in presence of ciprofloxacin by Checkerboard assay; type: functional, organism-based
Pseudomonas aeruginosa [13] = assay: Synergistic antibacterial activity against multidrug resistant Pseudomonas aeruginosa PA259 in presence of levofloxacin by Checkerboard assay; type: functional, organism-based
Pseudomonas aeruginosa [14] = assay: Synergistic antibacterial activity against multidrug resistant Pseudomonas aeruginosa PA259 in presence of moxifloxacin by Checkerboard assay; type: functional, organism-based
Pseudomonas aeruginosa [15] = assay: Synergistic antibacterial activity against multidrug resistant Pseudomonas aeruginosa PA262 in presence of ciprofloxacin by Checkerboard assay; type: functional, organism-based
Pseudomonas aeruginosa [16] = assay: Synergistic antibacterial activity against multidrug resistant Pseudomonas aeruginosa PA262 in presence of levofloxacin by Checkerboard assay; type: functional, organism-based
Pseudomonas aeruginosa [17] = assay: Synergistic antibacterial activity against multidrug resistant Pseudomonas aeruginosa PA264 in presence of moxifloxacin by Checkerboard assay; type: functional, organism-based
Pseudomonas aeruginosa [18] = assay: Synergistic antibacterial activity against multidrug resistant Pseudomonas aeruginosa PA100036 in presence of levofloxacin by Checkerboard assay; type: functional, organism-based
Pseudomonas aeruginosa [19] = assay: Synergistic antibacterial activity against multidrug resistant Pseudomonas aeruginosa PA100036 in presence of moxifloxacin by Checkerboard assay; type: functional, organism-based
Pseudomonas aeruginosa [20] = assay: Synergistic antibacterial activity against multidrug resistant Pseudomonas aeruginosa PA101885 in presence of moxifloxacin by Checkerboard assay; type: functional, organism-based
Escherichia coli [21] = assay: Additive antibacterial activity against Escherichia coli 107115 in presence of ciprofloxacin by Checkerboard assay; type: functional, organism-based
Escherichia coli [22] = assay: Additive antibacterial activity against Escherichia coli 94474 in presence of ciprofloxacin by Checkerboard assay; type: functional, organism-based
Escherichia coli [23] = assay: Synergistic antibacterial activity against Escherichia coli 107115 in presence of levofloxacin by Checkerboard assay; type: functional, organism-based
Escherichia coli [24] = assay: Synergistic antibacterial activity against Escherichia coli 94393 in presence of levofloxacin by Checkerboard assay; type: functional, organism-based
Escherichia coli [25] = assay: Synergistic antibacterial activity against Escherichia coli 94474 in presence of levofloxacin by Checkerboard assay; type: functional, organism-based
Escherichia coli [26] = assay: Synergistic antibacterial activity against Escherichia coli 94393 in presence of moxifloxacin by Checkerboard assay; type: functional, organism-based
Escherichia coli [27] = assay: Synergistic antibacterial activity against Escherichia coli 94474 in presence of moxifloxacin by Checkerboard assay; type: functional, organism-based
Klebsiella pneumoniae = assay: Synergistic antibacterial activity against Klebsiella pneumoniae 116381 in presence of ciprofloxacin by Checkerboard assay; type: functional, organism-based
Acinetobacter baumannii [28] = assay: Synergistic antibacterial activity against multidrug resistant Acinetobacter baumannii AB027 assessed as fractional inhibitory concentration index in presence of ciprofloxacin by Checkerboard assay; type: functional
Acinetobacter baumannii [29] = assay: Synergistic antibacterial activity against multidrug resistant Acinetobacter baumannii AB027 assessed as fractional inhibitory concentration index in presence of levofloxacin by Checkerboard assay; type: functional
Acinetobacter baumannii [30] = assay: Synergistic antibacterial activity against multidrug resistant Acinetobacter baumannii AB027 assessed as fractional inhibitory concentration index in presence of moxifloxacin by Checkerboard assay; type: functional
Pseudomonas aeruginosa [31] = assay: Potentiation of chloramphenicol-induced antibacterial activity against wild type Pseudomonas aeruginosa PAO1 measured after 18 hrs by CLSI protocol based microbroth dilution method; type: functional, organism-based
Pseudomonas aeruginosa [32] = assay: Potentiation of clindamycin-induced antibacterial activity against wild type Pseudomonas aeruginosa PAO1 measured after 18 hrs by CLSI protocol based microbroth dilution method; type: functional, organism-based
Pseudomonas aeruginosa [33] = assay: Potentiation of rifampicin-induced antibacterial activity against wild type Pseudomonas aeruginosa PAO1 measured after 18 hrs by CLSI protocol based microbroth dilution method; type: functional, organism-based
Pseudomonas aeruginosa [34] = assay: Potentiation of vancomycin-induced antibacterial activity against wild type Pseudomonas aeruginosa PAO1 measured after 18 hrs by CLSI protocol based microbroth dilution method; type: functional, organism-based
Pseudomonas aeruginosa [35] = assay: Potentiation of novobiocin-induced antibacterial activity against wild type Pseudomonas aeruginosa PAO1 measured after 18 hrs by CLSI protocol based microbroth dilution method; type: functional, organism-based

C[C@H]1COc2c(N3CCN(C)CC3)c(F)cc3c(=O)c(C(=O)NCCCCCCCCCCCC(=O)N[C@@H](CCN)C(=O)N[C@@H](CCN)C(N)=O)cn1c23
MIC (Staphylococcus aureus): 128 µg/mL (≈ 169 µM)
MIC (Streptococcus pneumoniae): > 128 µg/mL
MIC (Enterococcus faecalis): > 128 µg/mL
MIC (Pseudomonas aeruginosa [1]): > 128 µg/mL
MIC (Acinetobacter baumannii [2]): > 128 µg/mL
MIC (Pseudomonas aeruginosa [3]): 0.031 µg/mL
MIC (Pseudomonas aeruginosa [4]): 0.063 µg/mL
fractional inhibitory concentration index (FICI) (Pseudomonas aeruginosa [5]): 0.313
fractional inhibitory concentration index (FICI) (Pseudomonas aeruginosa [6]): 0.5
Activity (Pseudomonas aeruginosa [7]): Active
Activity (Pseudomonas aeruginosa [8]): Active
Activity (Pseudomonas aeruginosa [9]): Active
Activity (Pseudomonas aeruginosa [10]): Active
Activity (Pseudomonas aeruginosa [11]): Active
Activity (Pseudomonas aeruginosa [12]): Active
Activity (Pseudomonas aeruginosa [13]): Active
Activity (Pseudomonas aeruginosa [14]): Active
Activity (Pseudomonas aeruginosa [15]): Active
Activity (Pseudomonas aeruginosa [16]): Active
Activity (Pseudomonas aeruginosa [17]): Active
Activity (Pseudomonas aeruginosa [18]): Active
Activity (Pseudomonas aeruginosa [19]): Active
Activity (Pseudomonas aeruginosa [20]): Active
Activity (Escherichia coli [21]): Active
Activity (Escherichia coli [22]): Active
Activity (Escherichia coli [23]): Active
Activity (Escherichia coli [24]): Active
Activity (Escherichia coli [25]): Active
Activity (Escherichia coli [26]): Active
Activity (Escherichia coli [27]): Active
Activity (Klebsiella pneumoniae): Active
fractional inhibitory concentration index (FICI) (Acinetobacter baumannii [28]): 0.37
fractional inhibitory concentration index (FICI) (Acinetobacter baumannii [29]): 0.37
fractional inhibitory concentration index (FICI) (Acinetobacter baumannii [30]): 0.37
Activity (Pseudomonas aeruginosa [31]): Active
Activity (Pseudomonas aeruginosa [32]): Active
Activity (Pseudomonas aeruginosa [33]): Active
Activity (Pseudomonas aeruginosa [34]): Active
Activity (Pseudomonas aeruginosa [35]): Active
